Assay results taken from US3937829A, “Medicinal preparation for treatment of various forms of leprosy” (priority 1973, dated 1976).

Legend:
[1] = thermal stability (heating); assay type: physicochemical
Procedure: (§1) The preparation is soluble in diluted alkalis, dimethylformamide and dimethysulfoxide. Aqueous solutions of the preparation give an acid reaction. M.p. of the preparation lies at 233°-234°C, at temperatures above 235°C it decomposes; the preparation withstands heating at 150°C during 2 hours, at 100°C during 5 hours without decomposition.

[2] = concentration of sulfonic preparations in the blood during treatment; assay type: in vivo
Procedure: When determining the concentration of sulfonic preparations in the blood during treatment with diaminodiphenylsulfone, sulphetrone and the inventive preparations, it was observed that the concentration of the inventive preparation is twelve times as high as that of diaminodiphenylsulfone, both being administered as a powder at a dose of 0.1 g s.i.d. Futhermore, Injection of 2 ml of a 10 percent solution of the inventive preparation gave a concentration in the blood four times that which resulted from the introduction of 1 ml of 15-10 percent solution of sulphetrone.

[3] = tested on: lymphocytes of the human peripheral blood; assay: influence upon the synthesis of RNA in lymphocytes; assay type: cell-based
Source text: This may be considered as an evidence of possible differentiation of the lymphocytes or of potentiation of their specific function under the effect of the preparation.

[4] = toxicity with respect to warm-blooded animals
[5] = human, in vivo
[6] = storage stability; assay type: physicochemical
Source text: The medicinal preparation according to the invention for treatment of various forms of leprosy is stable when under long-term storage.

[7] = solubility and reaction of aqueous solutions; assay type: physicochemical
Procedure: as §1

[8] = clinico-biochemical data and blood findings in leprosy patients; assay type: in vivo, human
[9] = tested on: lymphocytes; assay: intracellular metabolism, RNA quantity in a cell and phagocytosis; assay type: cell-based, human
[10] = toxico-biological action during a three-month period (biochemical and histomorphological analyses); assay type: in vivo, white mice, rats and cats; settings: compared to control animals
Source text: Toxico-biological action of the preparation was studied in animals of the three species, viz., white mice, rats and cats. As a result, it was established that introduction of the medicinal preparation into an animal's organism during a three-month period provokes no changes, according to the data of biochemical and histomorphological analyses, in the internal organs, endocrine glands, brain, nerves and blood as compared to the control animals.

[11] = tested on: Mycobacterium leprae; assay: clinical experiments on 99 leprosy patients, therapeutic effect; assay type: in vivo, human

Cc1[nH]c(=O)[nH]c(=O)c1S(=O)(=O)Nc1ccc(S(=O)(=O)c2ccc(NS(=O)(=O)c3c(C)[nH]c(=O)[nH]c3=O)cc2)cc1 [preparation, p,-p-bis(2,4-dioxy-6-methylpyrimidinyl-5-sulfonamido)diphenylsulfone]
decomposition temperature [1]: above 235 °C
withstands heating without decomposition ([1]; 100°C): 5 h
withstands heating without decomposition ([1]; 150°C): 2 h
concentration in the blood relative to sulphetrone ([2]; 2 ml of 10 percent solution injected vs 1 ml of 15-10 percent solution of sulphetrone): four
concentration in blood relative to diaminodiphenylsulfone ([2]; both as a powder, 0.1 g s.i.d.): twelve
toxicity and effect on protective power, as concluded from RNA synthesis ([3]; increased immune response): non-toxic and acts as a stimulant of the protective power of the organisms
synthesis of RNA in lymphocytes ([3]; lymphocytes of the human peripheral blood): promotes the synthesis of RNA
LD50 ([4]; in vivo): 2600 mg/kg
toxicity relative to diaminodiphenylsulfone ([4]; white mice, rats, cats, vs diaminodiphenylsulfone): one-fifth
side effects [5]: none of the patients was found to suffer from any side effect
retention of properties on storage ([6]; darkness, 18°-25°C, 5 years): retain the appearance, melting point, IR-spectrum data, solubility and pH value of an aqueous solution
storage stability ([6]; long-term storage): stable
solubility in aqueous novocain solution ([7]; 0.1-1-percent aqueous novocain solution): sparingly soluble
reaction of aqueous solutions ([7]; aqueous solutions): acid reaction
solubility in diluted alkalis ([7]; diluted alkalis): soluble
solubility in dimethylformamide ([7]; dimethylformamide): soluble
solubility in dimethysulfoxide ([7]; dimethysulfoxide): soluble
solubility in ethyl alcohol ([7]; ethyl alcohol): insoluble
solubility in physiological saline ([7]; physiological saline): sparingly soluble
solubility in water ([7]; water): sparingly soluble
solubility ([7]; water, solutions, read-out: concentration of the active principle above which the substance precipitates): > 120 mg/mL
anabolic effect ([8]; clinico-biochemical data): less manifested
antipyretic effect ([8]; clinico-biochemical data): sharply pronounced
amount of erythrocytes ([8]; in the course of treatment): increased amount of erythrocytes
percentage of hemoglobin ([8]; in the course of treatment): higher percentage of hemoglobin
protein metabolism ([8]; in the course of treatment): normalized protein metabolism
intracellular metabolism [9]: promotes the processes of intracellular metabolism
quantity of RNA in a cell [9]: enhances the quantity of RNA in a cell
differentiation of lymphocytes and phagocytosis ([9]; lepromatous form of leprosy): easier differentiation of the lymphocytes into phagocytic forms and to the completion of phagocytosis
changes in internal organs, endocrine glands, brain, nerves and blood [10]: no changes
recurrence of the disease ([11]; 36 patients dismissed for ambulant therapy, following four years): None of the 36 patients
therapeutic effect in patients resistant to sulfonic antileprotic preparations ([11]; all patients resistant to sulfonic antileprotic preparations): good therapeutic effect
transformation of the lepromatous form into the tuberculoid form ([11]; histological examinations during the course of treatment): 7 patients
start of the regress of the disease ([11]; human, in vivo): 3-6 weeks
leprous reactions, neurites, inflammatory processes of the mucous membranes ([11]; in the course of treatment): disappeared
character of the regress of the disease ([11]; infiltrates, lepromas, causative agent, fibrosis): resolution of infiltrates and lepromas, appearance of a great amount of granular forms of the causative agent and bacterial decomposition, as well as occurrence of a sharply marked fibrosis
effect in patients resistant to sulfonic or other antileprotic therapy ([11]; patients resistant to sulfonic or some other antileprotic therapy): effective
